Data as given in patent US5612329A (priority 1995, dated 1997).

Key:
HL-60 (TB) cells = test: cells; format: cell-based; conditions: Homo sapiens, leukemia, 48 hr, read-out: log10 G150 (converted)
L1210 murine leukemia = test: In vivo testing in mice bearing L1210 leukemia; parameters: species or system female CD2 F1 mice; conditions: for LD20: footnote e
Excerpt: Virus-free, adult female CD2 F1 mice were obtained from the Animal Genetics and Production Branch of the National Cancer Institute. To minimize exogenous infection, mice were housed in microisolator caging and handled in accordance with the NIH Guide for the care and use of laboratory animals (NIH No. 85-23, 1985). The mice were randomized to groups of 5 mice per group, except titration groups which consisted of 10 mice per group, and the untreated control group which consisted of 20 mice.
On day 0, the mice were inoculated intraperitoneally with 1.0×10^5 L1210 mouse leukemia cells/mouse for the treatment and control groups. The titration groups received 1.0×10^4 to 1.0×10^6 L1210 cells/mouse.
Dosing solutions were freshly prepared just prior to treatment by dissolving 1,12-diaziridinyl-4,9-diazadodecane in 25 mM sodium phosphate buffer (pH 7.4), giving concentrations of 0.18-0.6 mg/ml.
Beginning on day 1, dosing solutions were administered intravenously by tail vein at 0.01 ml/g of body weight. The doses of 1,12-diaziridinyl-4,9-diazadodecane were 6.0, 4.0, 2.7, and 1.8 mg/kg. The dosing schedule was: a single dose on day 1; 3 doses every four days beginning on day 1; 2 doses every seven days beginning on day 1; or 2 doses on days 1 and 2.
Percent increase in lifespan was calculated using the formula, (T-C/C)·100, where T is the median day of death for the various treatment groups, and C is the median day of death for the control group.
The net log cell kill is an estimate of the number of cells that are killed by the drug at each specific dose and schedule, and was calculated by the formula, ((T-C)-Duration of Treatment)·0.3/Tumor Doubling Time.

NCl-H460 cells = test: In vitro cytotoxicity / cell growth inhibition, non-small cell lung cancer; format: cell-based; conditions: Homo sapiens, 48 hr, read-out: log10 G150 (converted)
Experimental: (§1) The anti-proliferative activities of the aziridinylpolyamines obtained in Synthesis Examples 1-4 were assessed by determining log10 G150 values against human cancer cell lines using the screening strategy described by Boyd et al, Drug Devel. Res. 34:91-109 (1995).
(§2) More specifically, the compounds were tested at a minimum of five concentrations at 10-fold dilutions using a 48 hr continuous exposure protocol. Each cell line shown in Table 1 below was inoculated onto microtiter plates. After a pre-incubation period of 24-48 hr at 37° C., the test compounds were added, and the culture was incubated for an additional 48 hr at 37° C. Cell viability or cell growth end-point determinations were performed by fixation of the cells, followed by staining with sulforhodamine B (Monks et al, J. Natl. Cancer Inst., 83:757-766 (1991)).

A549/ATCC cells = test: as above; format: cell-based; conditions: Homo sapiens, 48 hr, read-out: log10 G150 (converted)
Experimental: as §1, §2

NCl-H522 cells = test: as above; format: cell-based; conditions: Homo sapiens, 48 hr, read-out: log10 G150 (converted)
Experimental: as §1, §2

EKVX cells = test: as above; format: cell-based; conditions: Homo sapiens, 48 hr, read-out: log10 G150 (converted)
Experimental: as §1, §2

HOP-62 cells = test: as above; format: cell-based; conditions: Homo sapiens; HOP-62, non-small cell lung cancer, 48 hr; read-out: log10 G150 (converted)
Experimental: as §1, §2

NCl-H322M cells = test: as above; format: cell-based; conditions: Homo sapiens, 48 hr, read-out: log10 G150 (converted)
Experimental: as §1, §2

NCl-H226 cells = test: as above; format: cell-based; conditions: Homo sapiens, 48 hr, read-out: log10 G150 (converted)
Experimental: as §1, §2

NCl-H23 cells = test: as above; format: cell-based; conditions: Homo sapiens, 48 hr, read-out: log10 G150 (converted)
Experimental: as §1, §2

HOP-92 cells = test: as above; format: cell-based; conditions: Homo sapiens; HOP-92, non-small cell lung cancer, 48 hr; read-out: log10 G150 (converted)
Experimental: as §1, §2

HCT-15 cells = test: In vitro cytotoxicity / cell growth inhibition, colon cancer; format: cell-based; conditions: Homo sapiens; HCT-15, colon cancer, 48 hr; read-out: log10 G150 (converted)
Experimental: as §1, §2

HCT-116 cells = test: as above; format: cell-based; conditions: Homo sapiens; HCT-116, colon cancer, 48 hr; read-out: log10 G150 (converted)
Experimental: as §1, §2

COLO 205 cells = test: as above; format: cell-based; conditions: Homo sapiens; COLO 205, colon cancer, 48 hr; read-out: log10 G150 (converted)
Experimental: as §1, §2

HCC-2998 cells = test: as above; format: cell-based; conditions: Homo sapiens; HCC-2998, colon cancer, 48 hr; read-out: log10 G150 (converted)
Experimental: as §1, §2

KM12 cells = test: as above; format: cell-based; conditions: Homo sapiens, 48 hr, read-out: log10 G150 (converted)
Experimental: as §1, §2

SW-620 cells = test: as above; format: cell-based; conditions: Homo sapiens; SW-620, colon cancer, 48 hr; read-out: log10 G150 (converted)
Experimental: as §1, §2

HT29 cells = test: as above; format: cell-based; conditions: Homo sapiens, HT-29, 48 hr, read-out: log10 G150 (converted)
Experimental: as §1, §2

C(CCNCCCN1CC1)CNCCCN1CC1 [Synthesis Example 1, 1,12-Diaziridinyl-4,9-diazadodecane]
GI50 (HL-60 (TB) cells): 35.5 nM | Net log cell kill (NLCK) (L1210 murine leukemia; 1.8 mg/kg i.v. on day 1): 4 | Percent increase in life span (% ILS) (L1210 murine leukemia; 1.8 mg/kg i.v. on day 1): 57% | Survival (median day of death) (L1210 murine leukemia; 1.8 mg/kg i.v. on day 1): 11 days | Net log cell kill (NLCK) (L1210 murine leukemia; 1.8 mg/kg i.v. on days 1, 2): 6 | Percent increase in life span (% ILS) (L1210 murine leukemia; 1.8 mg/kg i.v. on days 1, 2): 100% | Survival (median day of death) (L1210 murine leukemia; 1.8 mg/kg i.v. on days 1, 2): 14 days | Net log cell kill (NLCK) (L1210 murine leukemia; 1.8 mg/kg i.v. on days 1, 5, 9): 2 | Percent increase in life span (% ILS) (L1210 murine leukemia; 1.8 mg/kg i.v. on days 1, 5, 9): 143% | Survival (median day of death) (L1210 murine leukemia; 1.8 mg/kg i.v. on days 1, 5, 9): 17 days | Net log cell kill (NLCK) (L1210 murine leukemia; 1.8 mg/kg i.v. on days 1, 8): -1 | Percent increase in life span (% ILS) (L1210 murine leukemia; 1.8 mg/kg i.v. on days 1, 8): 86% | Survival (median day of death) (L1210 murine leukemia; 1.8 mg/kg i.v. on days 1, 8): 13 days | Net log cell kill (NLCK) (L1210 murine leukemia; 2.7 mg/kg i.v. on day 1): 3 | Percent increase in life span (% ILS) (L1210 murine leukemia; 2.7 mg/kg i.v. on day 1): 42% | Survival (median day of death) (L1210 murine leukemia; 2.7 mg/kg i.v. on day 1): 10 days | Net log cell kill (NLCK) (L1210 murine leukemia; 2.7 mg/kg i.v. on days 1, 2): 6 | Percent increase in life span (% ILS) (L1210 murine leukemia; 2.7 mg/kg i.v. on days 1, 2): 100% | Survival (median day of death) (L1210 murine leukemia; 2.7 mg/kg i.v. on days 1, 2): 14 days | Net log cell kill (NLCK) (L1210 murine leukemia; 2.7 mg/kg i.v. on days 1, 5, 9): 4 | Percent increase in life span (% ILS) (L1210 murine leukemia; 2.7 mg/kg i.v. on days 1, 5, 9): 171% | Survival (median day of death) (L1210 murine leukemia; 2.7 mg/kg i.v. on days 1, 5, 9): 19 days | Net log cell kill (NLCK) (L1210 murine leukemia; 2.7 mg/kg i.v. on days 1, 8): 2 | Percent increase in life span (% ILS) (L1210 murine leukemia; 2.7 mg/kg i.v. on days 1, 8): 129% | Survival (median day of death) (L1210 murine leukemia; 2.7 mg/kg i.v. on days 1, 8): 16 days | Net log cell kill (NLCK) (L1210 murine leukemia; 4.0 mg/kg i.v. on day 1): 4 | Percent increase in life span (% ILS) (L1210 murine leukemia; 4.0 mg/kg i.v. on day 1): 57% | Survival (median day of death) (L1210 murine leukemia; 4.0 mg/kg i.v. on day 1): 11 days | Net log cell kill (NLCK) (L1210 murine leukemia; 4.0 mg/kg i.v. on days 1, 2): -3 | Percent increase in life span (% ILS) (L1210 murine leukemia; 4.0 mg/kg i.v. on days 1, 2): -29% | Survival (median day of death) (L1210 murine leukemia; 4.0 mg/kg i.v. on days 1, 2): 5 days | Net log cell kill (NLCK) (L1210 murine leukemia; 4.0 mg/kg i.v. on days 1, 5, 9): -7 | Percent increase in life span (% ILS) (L1210 murine leukemia; 4.0 mg/kg i.v. on days 1, 5, 9): 14% | Survival (median day of death) (L1210 murine leukemia; 4.0 mg/kg i.v. on days 1, 5, 9): 8 days | Net log cell kill (NLCK) (L1210 murine leukemia; 4.0 mg/kg i.v. on days 1, 8): 4 | Percent increase in life span (% ILS) (L1210 murine leukemia; 4.0 mg/kg i.v. on days 1, 8): 157% | Survival (median day of death) (L1210 murine leukemia; 4.0 mg/kg i.v. on days 1, 8): 18 days | Net log cell kill (NLCK) (L1210 murine leukemia; 6.0 mg/kg i.v. on day 1): -1 | Percent increase in life span (% ILS) (L1210 murine leukemia; 6.0 mg/kg i.v. on day 1): -14% | Survival (median day of death) (L1210 murine leukemia; 6.0 mg/kg i.v. on day 1): 6 days | LD20 (L1210 murine leukemia; i.v. on day 1): 4.0 mg/kg | LD20 (L1210 murine leukemia; i.v. on days 1, 2): 2.7 mg/kg | LD100 (L1210 murine leukemia; i.v. on days 1, 2, footnote f): 4.0 mg/kg | LD20 (L1210 murine leukemia; i.v. on days 1, 5, 9): 4.0 mg/kg | LD20 (L1210 murine leukemia; i.v. on days 1, 8): 4.0 mg/kg | increase in the life span (L1210 murine leukemia; i.v., doses of less than 2.7 mg/kg, days 1, 5, and 9): significant increase in the life span | GI50 (NCl-H460 cells): 363 nM | GI50 (A549/ATCC cells): 891 nM | GI50 (NCl-H522 cells): 427 nM | GI50 (EKVX cells): 3470 nM | GI50 (HOP-62 cells): 58.9 nM | GI50 (NCl-H322M cells): 4570 nM | GI50 (NCl-H226 cells): 724 nM | GI50 (NCl-H23 cells): 263 nM | GI50 (HOP-92 cells): 219 nM | GI50 (HCT-15 cells): 11500 nM | GI50 (HCT-116 cells): 1260 nM | GI50 (COLO 205 cells): 407 nM | GI50 (HCC-2998 cells): 1820 nM | GI50 (KM12 cells): 15500 nM | GI50 (SW-620 cells): 2630 nM | GI50 (HT29 cells): 3630 nM
